Where two headings read alike, the source gives them in different places.
How the values were obtained:
[1] = Solubility of sodium salt in water (water gradually added until clear); format: physicochemical; conditions: thermodynamic from solid; in water at 25° C.; deionized water gradually added, ultrasonication to clear solution
Protocol: The solubility of the sample in water was calculated.

[2] = Thermal stability, decomposition temperature by TGA; format: physicochemical
Protocol: Thermogravimetric Analysis (TGA) data were collected with TA Instruments Q500 TGA. The detection method used was as follows: 5-15 mg of a samples was placed in a platinum crucible, and a segmented high-resolution detection method was adopted in which the temperature of the sample was increased from room temperature to 300° C. at a heating rate of 10° C./min under the protection of 40 mL/min dry N2.

[3] = Storage stability of sodium salt crystal form, 4 months; format: physicochemical; conditions: room temperature, relative humidity 10%-90%
[4] = Crystal form stability of salt forms as suspensions in solvents; conditions: for Crystal form after stirring suspension: room temperature
[5] = Solubility of free state and salt forms in water by HPLC; format: physicochemical; conditions: stirred 2 h at 25° C., filtered
Protocol: HPLC solubility data were collected with Agilent 1260 high performance liquid chromatograph. The chromatographic column used was Poroshell 120 EC-C18 ([…]), the detection wavelength was 254 nm, column temperature for detection was 40° C., flow rate was 1.5 mL/min, and the sample volume was 5 μL. A sample was dissolved in mobile phase B to prepare a sample solution of a concentration about 0.45 mg/mL, and HPLC detection was performed according to the following gradient elution mode to obtain concentration in the sample.
Then samples were taken and filtered, and the concentrations were detected by HPLC. The solubility of the active ingredient in each of the samples in water was calculated.

Hygroscopicity by DVS = format: physicochemical; conditions: relative humidity 20%-80%; for Moisture uptake: DVS; for Appearance: after DVS
Protocol: Dynamic Vapor Sorption (DVS) data and isothermal sorption analysis data were collected with TA Instruments Q5000 TGA. The detection method used was as follows: 1-10 mg of a sample was placed in a platinum crucible, and weight change with the change of relative humidity from 20% to 80% was detected.

[6] = Crystal form storage stability, 30 days under conventional, high-temperature and accelerated conditions; format: physicochemical; conditions: 1 month under conventional, high-temperature (60° C.) and accelerated conditions (40° C.-75% relative humidity)
Protocol: The crystal form of the sulfate of the compound represented by formula A and the crystal form of the maleate of the compound represented by formula A according to the present application were taken to perform a stability experiment. Specific operation was as follows: 60 mg of the samples of the crystal form of the sulfate of the compound represented by formula A and the crystal form of the maleate of the compound represented by formula A according to the present application were taken and placed for 30 days respectively under conventional condition (sealed and placed in a dark place at 25° C.), high-temperature condition (sealed and placed in a dark place at 60° C.) and accelerated condition (opened and placed in a dark place at 40° C.-75% relative humidity) to study crystal form stability.

[7] = Crystal form stability of free state in solvents (Comparative Example 1 of CN105315266A); format: physicochemical
Description: Identification, preparation, a composition and use of the compound represented by formula A are disclosed in patent document CN103450171A (which is incorporated herein by reference in its entirety). Specifically, a method for preparing the compound is disclosed in Example 2. 12 crystal forms of the compound represented by formula A are disclosed in patent document CN105315266A (which is incorporated herein by reference in its entirety).

[8] = start: crystal forms I-XII and amorphous form, cited from earlier work

| SMILES | Crystal form after stirring suspension ([4]; Acetone, 3 days) | Crystal form after stirring suspension ([4]; Ethanol, 3 days) | Crystal form after stirring suspension ([4]; Isopropanol, 3 days) | Crystal form after stirring suspension ([4]; Water, 3 days) | Crystal form after stirring suspension ([4]; Water:acetone = 1:1, 3 days) | Crystal form after stirring suspension ([4]; Water:acetone = 1:5, 3 days) | Crystal form after stirring suspension ([4]; Water:acetone = 1:10, 3 days) | Crystal form after stirring suspension ([4]; Water:acetone = 1:100, 3 days) | Crystal form after stirring suspension ([4]; Water:ethanol = 1:1, 3 days) | Crystal form after stirring suspension ([4]; Water:ethanol = 1:5, 3 days) | Crystal form after stirring suspension ([4]; Water:ethanol = 1:10, 3 days) | Crystal form after stirring suspension ([4]; Water:ethanol = 1:100, 3 days) | Stability of crystal form in aqueous systems [4] | Solubility [5] [µg/mL] | Moisture uptake (Hygroscopicity by DVS) [%] | Appearance (Hygroscopicity by DVS) | Appearance, XRPD pattern and melting point after storage [6] | also measured |
| --- | --- | --- | --- | --- | --- | --- | --- | --- | --- | --- | --- | --- | --- | --- | --- | --- | --- | --- |
| CC(C)Cc1ccc(-c2nc(-c3ccc(CN4CC(C(=O)[O-])C4)c(F)c3)no2)cc1.[Na+] [sodium salt of 1-{2-fluoro-4-[5-(4-isobutylphenyl)-1,2,4-oxadiazole-3-yl]benzyl}-3-azetidinecarboxylic acid] | No change | No change | No change | No change | No change | No change | No change | No change | No change | No change | No change | No change | stable | – | – | – | – | Solubility [1]: 10000 µg/mL; Decomposition temperature [2]: 275 °C; Appearance, XRPD pattern and melting point after storage [3]: unchanged |
| CC(C)Cc1ccc(-c2nc(-c3ccc(CN4CC(C(=O)O)C4)c(F)c3)no2)cc1 [sulfate of 1-{2-fluoro-4-[5-(4-isobutylphenyl)-1,2,4-oxadiazole-3-yl]benzyl}-3-azetidinecarboxylic acid] | No change | No change | No change | No change | No change | No change | No change | No change | No change | No change | No change | No change | stable | 19.2 | 0.7 | Powder | unchanged | Solubility ([5]; listed as sulfate of the compound represented by formula A): 19 µg/mL |
| CC(C)Cc1ccc(-c2nc(-c3ccc(CN4CC(C(=O)O)C4)c(F)c3)no2)cc1.O=C(O)/C=C\C(=O)O [maleate of 1-{2-fluoro-4-[5-(4-isobutylphenyl)-1,2,4-oxadiazole-3-yl]benzyl}-3-azetidinecarboxylic acid] | No change | No change | No change | No change | No change | No change | No change | No change | No change | No change | No change | No change | stable | 16.1 | 0.4 | Powder | unchanged | solubility at 2 h ([5]; deionized water, 25 °C, water, thermodynamic from solid): 16 µg/mL |
| CC(C)Cc1ccc(-c2nc(-c3ccc(CN4CC(C(=O)O)C4)c(F)c3)no2)cc1 [1-{2-fluoro-4-[5-(4-isobutylphenyl)-1,2,4-oxadiazole-3-yl]benzyl}-3-azetidinecarboxylic acid] | – | – | – | – | – | – | – | – | – | – | – | – | – | – | – | – | – | Solubility ([5]; listed as compound represented by formula A): 1.1 µg/mL; Most stable crystal form ([7]; in an organic solvent): crystal form IV; Most stable crystal form ([7]; in water): crystal form I; Final crystal form ([8]; Acetone): Crystal form IV; Final crystal form ([8]; Ethanol): Crystal form IV; Final crystal form ([8]; Isopropanol): Crystal form IV; Final crystal form ([8]; Water:acetone = 1:1): Crystal form I; Final crystal form ([8]; Water:acetone = 1:5): Crystal form I; Final crystal form ([8]; Water:acetone = 1:10): Crystal form I; Final crystal form ([8]; Water:acetone = 1:100): Crystal form I; Final crystal form ([8]; Water:ethanol = 1:1): Crystal form I; Final crystal form ([8]; Water:ethanol = 1:5): Crystal form I; Final crystal form ([8]; Water:ethanol = 1:10): Crystal form I; Final crystal form ([8]; Water:ethanol = 1:100): Crystal form I; Final crystal form ([8]; Water): Crystal form I |
